# Legend:
# [1] = Acute toxicity assay; format: in vivo; details: for Mortality: 14 days observation
# Procedure: In acute toxicity assay, 18 female Kunming mice (Jinan Pengyue Experimental Animal Breeding Co., Ltd., Jinan, China), 18–22 g of weight, were used. The mice were randomly divided into three groups (n = 6), and treated with vehicle (0.5% CMC-Na solution) or 4o (300, 2000 mg/kg) by gavage once. The body weight, toxicity effect, general behavior and mortality of mice were monitored within 14 days after 4o treatment. In subacute toxicity assay, 10 male and 10 female Kunming mice (Jinan Pengyue Experimental Animal Breeding Co., Ltd., Jinan, China), 18–22 g of weight, were used. The mice were randomly divided into two groups with 5 males and 5 females, and were orally treated with vehicle (0.5% CMC-Na solution) or 4o (1000 mg/kg) once a day for 28 days. […]. After 28 days of treatment, the mice were anaesthetized with isoflurane and killed by decapitation. The heart, liver, spleen and kidney tissues were collected, and histologically analyzed by H&E staining.
# [2] = molecular target: T1, SHP2 protein in HCT116 cells (Homo sapiens, UniProt Q06124); assay: Cellular thermal shift assay (CETSA); format: cell-based; details: HCT116, 10 μM 4o, 3 h, versus DMSO
# T1 construct: endogenous in cells; host or cells: HCT116
# T1 sequence (Q06124 1-593): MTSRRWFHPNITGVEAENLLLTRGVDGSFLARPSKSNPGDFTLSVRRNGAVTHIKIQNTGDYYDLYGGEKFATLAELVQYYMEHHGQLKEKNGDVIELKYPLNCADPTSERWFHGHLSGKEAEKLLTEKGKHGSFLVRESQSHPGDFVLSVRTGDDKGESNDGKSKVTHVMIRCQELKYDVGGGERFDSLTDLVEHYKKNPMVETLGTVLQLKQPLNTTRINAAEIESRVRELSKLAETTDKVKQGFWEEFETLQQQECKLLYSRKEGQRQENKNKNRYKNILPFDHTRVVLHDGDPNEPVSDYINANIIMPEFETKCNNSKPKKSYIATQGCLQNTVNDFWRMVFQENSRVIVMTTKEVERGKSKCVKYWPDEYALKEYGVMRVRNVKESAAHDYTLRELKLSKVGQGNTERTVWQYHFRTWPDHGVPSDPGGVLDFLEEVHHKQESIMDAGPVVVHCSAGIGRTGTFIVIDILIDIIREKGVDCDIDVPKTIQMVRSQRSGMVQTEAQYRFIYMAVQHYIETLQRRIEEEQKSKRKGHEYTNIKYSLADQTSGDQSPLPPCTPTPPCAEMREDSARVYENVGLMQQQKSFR
# Procedure: The assay was performed as described previously. In brief, HCT116 cells were treated with DMSO or 4o for 3 h. Cells were resuspended in PBS and divided into four aliquots, and then the cell lysates were heated at different temperatures by T100^TM Thermal Cycler (Bio-Rad, Hercules, CA, USA). The heated cells were subjected to repeated freezing and thawing with liquid nitrogen for three times followed by centrifugation at 20,000× g for 20 min at 4 °C. Finally, the supernatants were gathered and boiled for 10 min after adding the loading buffer. Protein levels were assessed by Western blotting.
# [3] = test system: NCM460 cells; assay: Cell viability assay (SRB), normal cells; format: cell-based; details: Homo sapiens, 72 h
# Text: (§1) Human colon cancer cell line HCT116, hepatoma cell lines HepG2 and BEL-7402, lung adenocarcinoma cell lines NCI-H1975 and 95-D, pancreatic cancer cell line Panc-1, breast cancer cell line MDA-MB-231, NSCLC cell line NCI-H1299, ovarian cancer cell line SK-OV-3, leukemia cell line K562, glioma cell line U87, colon epithelial cell line NCM460 and umbilical vein endothelial cell line HUVEC were purchased from the Institute of Biochemistry and Cell Biology, Chinese Academy of Sciences (Shanghai, China). HCT116 cell line was cultured in McCoy’s 5A medium (Hyclone, Logan, UT, USA). HepG2, 95-D, Panc-1, MDA-MB-231, BEL-7402, SK-OV-3, U87 and NCM460 cell lines were cultured in DMEM-High glucose medium (Hyclone, Logan, UT, USA). NCI-H1975, NCI-H1299 and HUVEC cell lines were cultured in RPMI 1640 medium (Hyclone, Logan, UT, USA). K562 cell line was cultured in IMDM medium (Hyclone, Logan, UT, USA). […]
# (§2) The inhibition rate of cell viability was detected by 3-(4,5-dimethyl-2-thiazolyl)-2,5-diphenyl-2-H-tetrazolium bromide (MTT, Solarbio, Beijing, China) or Sulforhodamine B (SRB, Sigma-Aldrich, St. Louis, MO, USA) assay. […] The absorbance at 570 nm was measured in a multimode reader (Berthold Technologies, Germany). […] Finally, Tris–HCl solution was added, and the absorbance at 515 nm was detected in a multimode reader (Berthold Technologies, Germany).
# [4] = test system: HUVEC cells; assay: Cell viability assay (SRB), normal cells; format: cell-based; details: Homo sapiens, 72 h
# Text: as §1, §2
# [5] = test system: HCT116 cells; assay: Hoechst 33258 staining; format: cell-based, human; details: HCT116, 4o 2.5, 5 and 10 μM, 24 h
# Procedure: HCT116 cells were treated with different concentrations of 4o for 24 h, then were stained with Hoechst 33,258 (Beyotime Institute of Biotechnology, Shanghai, China). The nuclear morphology was observed under fluorescence microscope.
compound,measurement,setting,value
"CCOc1ccc(Oc2ccc(C3=NN(C4=NC(=O)CS4)C(c4cc(O)c(O)c(Br)c4Br)C3)cc2)cc1 (stereo not drawn) [Compound 4o, 2-(5-(2,3-dibromo-4,5-dihydroxyphenyl)-3-(4-(4-ethoxyphenoxy)phenyl)-4,5-dihydro-1H-pyrazol-1-yl)thiazol-4(5H)-one]",Body Weight (g) Day 0,[1]; 300 mg/kg single oral dose,24.41 ± 0.64 g
same,Body Weight (g) Day 7,[1]; 300 mg/kg single oral dose,28.78 ± 0.78 g
same,Body Weight (g) Day 14,[1]; 300 mg/kg single oral dose,30.75 ± 0.99 g
same,Mortality,[1]; 300 mg/kg single oral dose,0/6
same,Body Weight (g) Day 0,[1]; 2000 mg/kg single oral dose,25.19 ± 1.45 g
same,Body Weight (g) Day 7,[1]; 2000 mg/kg single oral dose,30.51 ± 0.88 g
same,Body Weight (g) Day 14,[1]; 2000 mg/kg single oral dose,31.43 ± 1.09 g
same,Mortality,[1]; 2000 mg/kg single oral dose,0/6
same,Stability of SHP2 protein (CETSA),[2],obviously increased
same,IC50,[3],27.1 ± 0.66 µM
same,IC50,[4],28.3 ± 1.63 µM
same,"Nuclear morphology (Hoechst 33,258 staining)",[5],chromatin was condensed and apoptosis occurred

# From paper PMC8998978, “Toward a Treatment of Cancer: Design and In Vitro/In Vivo Evaluation of Uncharged Pyrazoline Derivatives as a Series of Novel SHP2 Inhibitors” (International Journal of Molecular Sciences, 2022)
